# Experimental data from US20140141503A1, “CELL CULTURE SUBSTRATE HAVING UNIFORM SURFACE COATING” (Corning Incorporated, priority 2012, published 2014).
# Assay: Compound extraction (loss) from PBS buffer by PDMS coating, UV-VIS at 260 nm
# Type: physicochemical
# Settings: 200 μL of 200 μM Nefazodone-PBS, 24 hours, less than 0.8 mg of PDMS in 200 μL PBS (volume ratio PDMS to buffer less than 1/250)
# Procedure: Nefazodone is a small hydrophobic compound that can be readily extracted from aqueous buffer by PDMS following a partition function rule, which means the loss of Nefazodone […] with the amount of PDMS present in a given volume of buffer. In order to determine the safe quantity of PDMS for use with 200 μL of PBS buffer, 200 μL of a 200 μM Nefazodone-PBS solution was incubated in wells (formed generally as described above in EXAMPLE 4) containing varying PDMS coating amounts from 0.005 mg to 4 mg per well for 24 hours. After 24 hours the Nefazodone that remained in the PBS buffer was measured by UV-VIS adsorption at 260 nm. The results shown in FIG. 11 indicate that the loss of Nefazodone is negligible in the presence of less than 0.8 mg of PDMS in 200 μL of PBS buffer (meaning volume ratio of PDMS to buffer is less than 1/250).
smiles,measurement,value
CCc1nn(CCCN2CCN(c3cccc(Cl)c3)CC2)c(=O)n1CCOc1ccccc1 [Nefazodone],loss of Nefazodone from PBS buffer,negligible
